Source: US20220395464A1, “ORALLY ADMINISTERED SOLID DOSAGE FORM DRUG” (ASCENTAWITS PHARMACEUTICALS, LTD., priority 2019, published 2022)
Where “and” joins values, the source holds several entries; their conditions need not be identical. Identical values can stand only once. Like-named read-outs stand apart in the source and are kept apart here.

Columns and labels:
[1] = Pharmacokinetics after single intravenous drip infusion, plasma LC-MS/MS; format: in vivo, Philippine macaques; conditions: male, plasma, 0.42 mg/kg, plasma; for concentration at 0.17 hr / concentration at 0.25 hr / concentration at 0.5 hr / concentration at 0.75 hr / concentration at 1 hr: intravenous, AST-3424-D6 intravenous drip infusion 0.42 mg/kg
Protocol: AST-3424 and AST-3424-D6 (i.e. the compound of formula I) were administered to Philippine macaques by intravenous drip infusion, and blood samples were collected at different appointed times. LC-MS/MS was used to determine concentrations of the test substances in plasma of the Philippine macaques after administration, and relevant pharmacokinetic parameters were calculated.
Preparation method: 0.447 ml of AST-3424 (0.2 mg/ml) and 0.481 ml of AST-3424-D6 (0.2 mg/ml) were added into 104.272 ml of the dissolvent, respectively, and mixed for 5 minutes to obtain colorless and clarified solutions with pH 7.0.
The four male Philippine macaques were purchased from Guangxi Xiongsen Primate Development Experiment Co., Ltd. All Philippine macaques were healthy with qualified medical examination and no abnormality. Three of animals were used for the experiment, and one of them was used to prepare blank plasma.
About 0.8 ml of blood samples were collected through femoral vein and anticoagulated with heparin sodium. Appointed times of blood collection were before administration, 0.17, 0.25, 0.5, 0.75, 1, 2, and 4 hours after administration.
The blood samples were placed on ice after collection. Next, plasma samples were separated by centrifugation, and centrifugation conditions were 3500 rpm for 10 minutes at 4° C. Then, the collected plasma samples were stored at −80° C. until analysis. The plasma samples were analyzed by LC-MS/MS by an analysis department of an experimental institution. Besides, Lower limit of quantifications (LLOQ) of AST-3424 and AST-3424-D6 detection were 1 ng/ml. The accuracy of analysis results of an accompanying standard curve and a quality control samples all met the relevant requirements of biological analysis (the accuracy of the quality control samples exceeding 66.7% was between 85˜115%) in a process of the sample detection.
According to average blood concentration data of each group at each appointed time, the pharmacokinetic parameters of the compounds were respectively computed by a pharmacokinetic computing software, a non-compartmental model. In addition, the pharmacokinetic parameters were AUC0-t, AUC0-∞, MRT0-∞, Cmax, Tmax, t1/2, etc. In the case of the concentrations of the samples whose concentration being lower than a lower limit of quantification, the following schemes were used to compute the pharmacokinetic parameters. The samples sampled before reaching Cmax shall be computed as zero value, while the samples sampled after reaching Cmax shall be computed as non-quantifiable (marked as “BLQ”).
After a single intravenous infusion of the compounds AST-3424 and AST-3424-D6 was administered to the Philippine macaques, the whole blood samples of the corresponding animals were collected at the appointed times. Next, the whole blood samples were processed and biologically analyzed to obtain concentrations of the compounds in the plasma at the different appointed times. Results of the assay were listed in Table 14 below, and corresponding means of the plasma-drug concentration-time curves are shown in FIG. 3.
According to the plasma-drug concentration data of each drug group, the pharmacokinetic parameters of each compound group were computed using the non-compartmental model of the pharmacokinetic computing software. The pharmacokinetic

[2] = Stability in hepatomicrosome with NADPH (LC-MS/MS); format: in vitro ADME, human; conditions: for % Remaining: human hepatomicrosome 0.5 mg/ml, NADPH 2 mM, 37° C., Sample 1, Sample 2
Protocol: The compounds, hepatomicrosome and reduced coenzyme NADPH were mixed together. Besides, a final concentration of the hepatomicrosome was 0.5 mg/ml, and human, male and mixed types of the hepatomicrosome were purchased. A final concentration of the NADPH was 2 mM. Next, the preceding mixtures were incubated in buffer (100 mM KH2PO4—K2HPO4) at 37° C. for 0, 5, 15, 30, 45, and 60 minutes, respectively. At the appointed incubation time, the reaction was terminated by the addition of an internal standard solution. Finally, the samples were centrifuged and the supernatant was taken for detection by LC-MS/MS.
Through mass spectrometry analysis, a concentration of the compounds in each sample was expressed by a peak-area ratio (a ratio of the peak-area of the compound to a peak-area of the internal standard). Then, each remaining percentage of the compounds (% Remaining) at each appointed incubation time was calculated with a reference that 0 minute at each concentration of the compounds. In logarithm of the remaining percentage was fitted linearly with the appointed incubation times, and a half-life and an intrinsic clearance were calculated according to the following formulas.
The remaining percentage (% Remaining)=(a peak area ratio at a certain appointed time (PARappointed time)/a peak area ratio at 0 minute (PAR0-mm)×100 (PAR: peak area ratio)
The elimination rate constant (k)=a negative of a slope (-gradient)
In vitro clearance (CLint, in vitro) (ml/min/mg)=k/c (c: a concentration of hepatomicrosome in the incubation system)

[3] = Philippine macaque, individual animals 101, 102, 103, read-out: Plasma-drug concentration
[4] = Philippine macaque, read-out: Plasma-drug concentration, mean

Stability parameter k (elimination rate constant) ([2]; human hepatomicrosome): 0.0349 min⁻¹
% Remaining ([2]; 0 minutes): 101.60% and 98.40%
% Remaining ([2]; 5 minutes): 85.07% and 87.20%
% Remaining ([2]; 15 minutes): 62.93% and 60.00%
% Remaining ([2]; 30 minutes): 36.80% and 34.93%
% Remaining ([2]; 45 minutes): 21.17% and 21.07%
% Remaining ([2]; 60 minutes): 13.52% and 12.75%
% Remaining, Average ([2]; human hepatomicrosome, 0 minutes): 100.00%
% Remaining, Average ([2]; human hepatomicrosome, 5 minutes): 86.13%
% Remaining, Average ([2]; human hepatomicrosome, 15 minutes): 63.47%
% Remaining, Average ([2]; human hepatomicrosome, 30 minutes): 35.87%
% Remaining, Average ([2]; human hepatomicrosome, 45 minutes): 21.12%
% Remaining, Average ([2]; human hepatomicrosome, 60 minutes): 13.13%
half-life ([2]; male, liver microsomes (hepatomicrosome), human hepatomicrosome, read-out: Stability parameter (t1/2)): 19.9 min
Compound: [2H]C([2H])([2H])N(C(=O)c1cccc(Oc2cc([C@H](C)OP(=O)(N3CC3)N3CC3)ccc2[N+](=O)[O-])c1)C([2H])([2H])[2H] [AST-3424-D6]
half-life ([1]; Philippine macaque, cynomolgus monkey, iv, AST-3424-D6 single intravenous infusion, Table 15 heading 0.58 mg/kg (text: 0.42 mg/kg), read-out: T1/2, Mean (converted)): 7.2 min
Tmax ([1]; Philippine macaque, cynomolgus monkey, iv, AST-3424-D6 single intravenous infusion, Table 15 heading 0.58 mg/kg (text: 0.42 mg/kg), read-out: Tmax, Mean): 18.6 min
Vd ([1]; Philippine macaque, cynomolgus monkey, iv, AST-3424-D6 single intravenous infusion, Table 15 heading 0.58 mg/kg (text: 0.42 mg/kg), read-out: Vss, Mean): 0.202 L/kg
concentration at 0.17 hr [1, 3]: 416 ng/mL
concentration at 0.17 hr [1, 4]: 490 ng/mL
concentration at 0.25 hr [1, 3]: 479 ng/mL
concentration at 0.25 hr [1, 4]: 505 ng/mL
concentration at 0.5 hr [1, 3]: 485 ng/mL
concentration at 0.5 hr [1, 4]: 502 ng/mL
concentration at 0.75 hr [1, 3]: 113 ng/mL
concentration at 0.75 hr [1, 4]: 109 ng/mL
concentration at 1 hr [1, 3]: 41 ng/mL
concentration at 1 hr [1, 4]: 33.8 ng/mL
clearance ([1]; cynomolgus monkey, iv, AST-3424-D6 single intravenous infusion, Table 15 heading 0.58 mg/kg (text: 0.42 mg/kg), read-out: Cl, Mean (converted)): 22.3 mL/min/kg
Vd ([1]; cynomolgus monkey, iv, AST-3424-D6 single intravenous infusion, Table 15 heading 0.58 mg/kg (text: 0.42 mg/kg), read-out: Vz, Mean): 0.235 L/kg
Hepatomicrosome stability compared with AST-3424, in words ([2]; human hepatomicrosome, FIG. 2 and Table 13): more stable
Remaining percentage higher than that of AST-3424 ([2]; human hepatomicrosome, at the same time period): at least 10%
